Test results from patent publication US10800814B2, “Cyclic peptidomimetics, compositions containing them and their use in the treatment of diseases associated with angiogenesis” (priority 2015, dated 2020).
Positions of bridges follow the written chain, without caps; N, C: chain ends. Residues, ends and D or L forms follow the SMILES beside them. Chains are numbered I, II in the order given. No end group written: not given here.

Biological target: T1, VEGF165/NRP-1 (Rattus norvegicus, UniProt Q9QWJ9)
T1 construct: purchased R&D Systems
T1 sequence (Q9QWJ9 22-854 limits assumed): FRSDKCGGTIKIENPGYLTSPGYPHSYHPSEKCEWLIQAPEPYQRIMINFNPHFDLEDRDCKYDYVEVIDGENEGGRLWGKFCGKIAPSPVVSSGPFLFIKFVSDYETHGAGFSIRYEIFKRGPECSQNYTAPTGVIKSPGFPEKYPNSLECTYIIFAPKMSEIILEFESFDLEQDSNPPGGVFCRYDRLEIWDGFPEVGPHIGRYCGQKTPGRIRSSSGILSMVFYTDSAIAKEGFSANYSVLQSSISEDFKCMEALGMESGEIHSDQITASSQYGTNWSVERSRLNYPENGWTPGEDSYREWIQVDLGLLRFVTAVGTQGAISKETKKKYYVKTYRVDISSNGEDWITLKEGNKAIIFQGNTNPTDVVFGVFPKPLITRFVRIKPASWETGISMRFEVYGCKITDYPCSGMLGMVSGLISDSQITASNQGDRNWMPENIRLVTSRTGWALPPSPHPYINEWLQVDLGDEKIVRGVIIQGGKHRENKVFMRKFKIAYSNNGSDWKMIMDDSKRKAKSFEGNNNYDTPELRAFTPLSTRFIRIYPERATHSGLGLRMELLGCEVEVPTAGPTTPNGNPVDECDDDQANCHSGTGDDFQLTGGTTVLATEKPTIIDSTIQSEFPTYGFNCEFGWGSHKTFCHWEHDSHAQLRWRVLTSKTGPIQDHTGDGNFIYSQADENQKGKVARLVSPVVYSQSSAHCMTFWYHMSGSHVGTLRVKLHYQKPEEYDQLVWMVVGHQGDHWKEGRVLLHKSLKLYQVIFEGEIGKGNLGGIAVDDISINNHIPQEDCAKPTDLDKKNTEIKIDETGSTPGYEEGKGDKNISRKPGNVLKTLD
Test: biochemical
Type: binding
Settings: for IC50: VEGF165/NRP-1 binding inhibition
Method: Selected compounds were tested in vitro by measuring the inhibition binding of VEGF165 to NRP-1. This assay allows the determination of percentage inhibition of the tested compound at a predetermined concentration. Determination of the Inhibitory Activity of the Tested Compounds. The evaluation of the inhibitory effect of peptidomimetics was performed using an enzymatic method denoting the spectrophotometric displacement of the VEGF165 ligand from the specific receptor by the evaluated compound. The studies were performed using polystyrene 96-well plates (Maxisorb, Nunc.). The Procedure for Determining the Inhibition of VEGF165/NRP-1. To evaluate the biological inhibitory activity of selected molecules in each well of flat bottom polystyrene plate of 96-wells (Maxisorb, Nunc,) a 100 μl of a solution containing 2 μg/ml of anti-Fc IgG (Sigma-Aldrich) dissolved in a phosphate buffer PBS (PBS, Sigma) was placed. The plate was allowed to stand overnight at 4° C. The next day, wells were washed three times with 100 μl PBS, and then saturated with 2% bovine serum albumin (BSA, Sigma) in PBS in order to eliminate non-specific interactions. After 2 hours of incubation at 37° C. the following solutions were added portionwise: 50 μl of purified recombinant rat NRP1-Fc (R&D Systems, Abingdon, UK) in a solution of 20 ng/well protein dissolved in PBS-BSA 0.1% tween-80 0.005% (PBT), 50 μl of compound solution in PBT in an appropriate concentration […] The total volume of added solution was 150 μl. After an overnight incubation at 4° C., the wells were washed with PBT and treated with streptavidin-HRP polymer (horseradish peroxidase, Sigma). The plate was incubated for 1 hour at room temperature. […] After 2 hours, the absorbance was measured at wavelength of 415 nm with respect to 470 nm. […] In the control wells the tested compound was absent, but the respective concentration of DMSO was maintained. The heptapeptide A7R (ATWLPPR (SEQ ID NO:1)) was used as a positive control on every 96-well plate.

Row | Compound | IC50 | decrease in inhibition with decreasing concentration (reduction of concentrations of 10-0.3 μM)
1 | N=C(N)NCCCC(NC(=O)C1CCC(=O)NC(CCCCN)C(=O)N2CCCC2C(=O)NC(C(=O)NC(CCCNC(=N)N)C(=O)O)CCC(=O)NC(CCCCN)C(=O)N2CCCC2C(=O)N1)C(=O)O (stereo not drawn) [(c[Lys-Pro-Glu]-Arg-OH)2] (I: KPER-OH / II: KPER-OH; amide I:3-II:N, I:N-II:3; configuration not given here) | 460 nM | –
2 | N=C(N)NCCCC(NC(=O)C1CCC(=O)NCCCCC(N)C(=O)N2CCCC2C(=O)N1)C(=O)O (stereo not drawn) [H-c[Lys-Pro-Glu]-Arg-OH] (H-KPER-OH; lactam 1-3; configuration not given here) | 180 nM | –
3 | ATWLPPR [A7R, ATWLPPR, reference compound] | – | 5 fold
